From patent US8951972B2, “FGFR1 extracellular domain combination therapies for lung cancer” (Five Prime Therapeutics, Inc., priority 2010, dated 2015) come the findings set out here.

The subject of data set [1] is A549 Non-Small Cell Lung Cancer (NSCLC) Xenograft. The data set can be described thus: A549 non-small cell lung cancer (NSCLC) xenograft model, tumor volume. The data set is classed as in vivo, SCID mice. The method, then:
Six weeks old female SCID mice were purchased from Charles River Laboratories (Wilmington, Mass.) and were acclimated for 1 week before the start of the study. […] The cells were implanted subcutaneously over the right flank of the mice at 5×10^6 cells/100 μl/mouse. One day after tumor implantation, mice were randomized according to body weight at 10 mice per group.
The tumor volume and body weight of the mice were monitored twice a week throughout each study.
The tumor volume of each group of mice at the end of each study was analyzed by one-way ANOVA followed by Tukey's test.
Cisplatin was purchased from Sigma-Aldrich (St. Louis, Mo.; Cat. No. P4394), formulated in 0.9% saline, and administered i.p. at 3.5 mg/kg ([…]) once per week for six weeks. Saline was used as negative control and was administered i.p. at 100 μl per mouse twice a week for six weeks.
On day 42, when the average tumor volume in the vehicle group reached 1300 mm^3, the mice were euthanized by isoflurane inhalation and cervical dislocation.
FGFR1-ECD.339-Fc was formulated in 0.9% Saline for Injection USP at 3 mg/ml. […] FGFR1-ECD.339-Fc was administered intraperitoneally (i.p.) at 15 mg/kg twice per week for 5 weeks. Paclitaxel was administered i.p. at 18 mg/kg on days 8, 12, and 15.
When the average tumor volume in vehicle control group reached ˜500 mm^3, the mice were euthanized by isoflurane inhalation and cervical dislocation.
FGFR1-ECD.339-Fc was formulated in 0.9% Saline for Injection USP at 3 mg/ml. 5-FU was purchased from Sigma-Aldrich (St. Louis, Mo.; Cat. No. F6627) and was initially dissolved in dimethyl sulfoxide (DMSO, Sigma-Aldrich, St. Louis, Mo.; Cat. No. D8418-50) at the concentration of 50 mg/ml as a stock solution. The stock solution was further diluted in 0.9% Sodium Chloride Injection USP to 6.6 mg/ml (for 33 mg/kg dosing). FGFR1-ECD.339-Fc was administered intraperitoneally (i.p.) at 15 mg/kg twice per week for four weeks. 5-FU was administered i.p. at 33 mg/kg twice a week for three weeks.
Mice were euthanized on day 31 by isoflurane inhalation and cervical dislocation.
FGFR1-ECD.339-Fc was formulated in PBS at 3 mg/ml and administered intraperitoneally (i.p.) at 15 mg/kg (300 μg/100 μl/mouse) twice a week for four weeks. Docetaxel was administered i.p. at 3 mg/kg or 10 mg/kg twice per week for four weeks.
Mice in the albumin control group were euthanized on day 32 by isoflurane inhalation and cervical dislocation when the average tumor volume in the group reached 1000 mm^3.

Data set [2] can be described thus: Body weight of the mice in the xenograft studies. Format: in vivo. To be noted: for Body weight / tolerability: 250 mg/kg; for Body weight (weight loss): A549 study.
In data set [3] the test system is H520 Non-Small Cell Lung Cancer (NSCLC) Xenograft. The experiment in a line: H520 non-small cell lung cancer (NSCLC) xenograft model, tumor volume. The data set is classed as in vivo, SCID mice. As to the method: Dosing for all groups began one day post tumor implantation.
In combination groups, FGFR1-ECD.339-Fc and pemetrexed were administered on the same schedule as when given as single agents, and were administered concurrently on days 1, 4, 8, and 11.

For data set [4], the system named is Colo205 Colon Cancer Xenograft. The data set can be described thus: Colo205 colon cancer xenograft model, tumor volume. The data set is classed as in vivo, SCID mice. As to the method: Cells were resuspended in a solution of 50%/v PBS and 50%/v Matrigel at a concentration of 25 million cells/ml. Resuspended cells were kept on ice until implantation. […] On day 0, 2.5 million cells/100 μl were implanted over the right flank of the each mouse using a 27G1/2 needle. One day after tumor implantation, the mice were randomized according to the body weight.
Leucovorin (LV) was also purchased from Sigma-Aldrich (Cat. No. F8259) and was formulated in 0.9% Sodium Chloride Injection USP at 2 mg/ml (for 10 mg/kg dosing), to 4 mg/ml (for 20 mg/kg dosing), and to 6 mg/ml (for 30 mg/kg dosing).
In the first experiment, FGFR1-ECD.339-Fc was combined with three different concentrations of 5-FU/leucovorin. In the second experiment, FGFR1-ECD.339-Fc was combined with either bevacizumab or 5-FU/leucovorin, or both. The double line separates the groups from the two experiments.
When the average tumor volume in a group was near 600 mm^3, the mice in that group were euthanized by isoflurane inhalation and cervical dislocation.
The order of effectiveness of the various treatments was evaluated two ways: 1) the average tumor volume in each group on a single time point (day); and 2) time for the average tumor volume in each group to reach 500 mm^3 (see the dotted line in FIG. 11E).
Leucovorin was also purchased from Sigma-Aldrich (Cat. No. F8259) and was formulated in 0.9% Sodium Chloride Injection USP at 2 mg/ml (for 10 mg/kg dosing).
5-FU and leucovorin were each administered i.p. at 10 mg/kg daily for five days. Oxaliplatin was administered i.p. at 5 mg/kg, 10 mg/kg, or 15 mg/kg in one dose on day 1.
Mice were euthanized on day 28 by isoflurane inhalation and cervical dislocation.

[5] abbreviates: day 42, FGFR1-ECD.339-Fc 20 mg/kg i.p. 2x/wk x 6 wks, cisplatin 3.5 mg/kg i.p. 1x/wk x 6 wks.
The mark [6] stands for this setting: day 24, FGFR1-ECD.339-Fc 15 mg/kg i.p. 3x/wk x 4 wks, bevacizumab 1 mg/kg i.p. 2x/wk x 4 wks, 5-Fu/LV 10 mg/kg each i.p. q.d. x 5 days.

Consider `O=c1[nH]cc(F)c(=O)[nH]1` [5-FU, 5-fluoro-1H-pyrimidine-2,4-dione, reference compound], for which the “Fractional tumor volume (FTV), each treatment alone” value in data set [1] (day 31, FGFR1-ECD.339-Fc 15 mg/kg i.p. 2x/wk x 4 wks, 5-FU 33 mg/kg i.p. 2x/wk x 3 wks) is 1.04.

Consider `N.N.[Cl][Pt][Cl]` [Cisplatin, (SP-4-2)-diamminedichloridoplatinum, reference compound], for which, in data set [1] (setting [5]), the “Mean Tumor volume mm^3(±SD)” value was 682 (±195) mm^3 and the “Tumor growth inhibition (%)” value is on record as 49%. Moreover, the “Fractional tumor volume (FTV) relative to control, each treatment alone” value in data set [1] (day 42, FGFR1-ECD.339-Fc 20 mg/kg, cisplatin 3.5 mg/kg) was 0.5.

As to `CC(=O)O[C@H]1C(=O)[C@@]2(C)[C@H]([C@H](OC(=O)c3ccccc3)[C@]3(O)C[C@H](OC(=O)[C@H](O)[C@@H](NC(=O)c4ccccc4)c4ccccc4)C(C)=C1C3(C)C)[C@]1(OC(C)=O)CO[C@@H]1C[C@@H]2O` [Paclitaxel, (2α,4α,5β,7β,10β,13α)-4,10-bis(acetyloxy)-13-{[(2R,3S)-3-(benzoylamino)-2-hydroxy-3-phenylpropanoyl]oxy}-1,7-dihydroxy-9-oxo-5,20-epoxytax-11-en-2-yl benzoate, reference compound], the “Fractional tumor volume (FTV), each treatment alone” value in data set [1] (day 31, FGFR1-ECD.339-Fc 15 mg/kg i.p. 2x/wk x 5 wks, paclitaxel 18 mg/kg i.p. days 8, 12, 15) was 0.57; in data set [1] (day 38, FGFR1-ECD.339-Fc 15 mg/kg i.p. 2x/wk x 5 wks, paclitaxel 18 mg/kg i.p. days 8, 12, 15), 0.50.

For the compound `Nc1nc2[nH]cc(CCc3ccc(C(=O)N[C@@H](CCC(=O)O)C(=O)O)cc3)c2c(=O)[nH]1` [Pemetrexed, (S)-2-[4-[2-(4-amino-2-oxo-3,5,7-triazabicyclo[4.3.0]nona-3,8,10-trien-9-yl)ethyl]benzoyl]aminopentanedioic acid, reference compound], the “Body weight / tolerability” value is “approaching the maximum tolerated dose” in data set [2] (H520 study, high dose of pemetrexed, 250 mg/kg i.p. QD x 5, FIG. 4B) and “initially lost significant body weight” in data set [2] (mouse, in vivo, ip). In addition, the “Tumor inhibition over the course of the study (mean tumor volume)” value in data set [3] (FIG. 4A, highest dose of pemetrexed (250 mg/kg), alone or with FGFR1-ECD.339-Fc 15 mg/kg) is recorded as “did not appear to inhibit tumor growth”; in data set [3] (FIGS. 2A, 3A, 4A, FGFR1-ECD.339-Fc 15 mg/kg, pemetrexed alone at the low or medium dose (62.5 or 125 mg/kg), combination dosed concurrently), “resulted in tumor inhibition”.

On to `CC[C@]1(O)C[C@H]2CN(CCc3c([nH]c4ccccc34)[C@@](C(=O)OC)(c3cc4c(cc3OC)N(C=O)[C@H]3[C@@](O)(C(=O)OC)[C@H](OC(C)=O)[C@]5(CC)C=CCN6CC[C@]43[C@@H]65)C2)C1` [Vincristine, methyl (1R,9R,10S,11R,12R,19R)-11-(acetyloxy)-12-ethyl-4-[(13S,15S,17S)-17-ethyl-17-hydroxy-13-(methoxycarbonyl)-1,11-diazatetracyclo[13.3.1.0^4,12.0^5,10]nonadeca-4(12),5,7,9-tetraen-13-yl]-8-formyl-10-hydroxy-5-methoxy-8,16-diazapentacyclo[10.6.1.0^1,9.0^2,7.0^16,19]nonadeca-2,4,6,13-tetraene-10-carboxylate, reference compound], for which the “Fractional tumor volume (FTV), each treatment alone” value in data set [1] (day 39, FGFR1-ECD.339-Fc 15 mg/kg i.p. 2x/wk (start day 1), vincristine 1 mg/kg i.p. days 8, 15, 22) was 0.53; in data set [1] (day 46, FGFR1-ECD.339-Fc 15 mg/kg i.p. 2x/wk (start day 1), vincristine 1 mg/kg i.p. days 8, 15, 22) it was 0.55; in data set [1] (day 70, FGFR1-ECD.339-Fc 20 mg/kg i.p. 2x/wk (start day 19), vincristine 1.5 mg/kg i.p. days 27, 34, 41), 0.41. In addition, the “Body weight (weight loss)” value in data set [2] (higher dose of vincristine (1.5 mg/kg i.p. days 27, 34, 41), FIG. 9C) was “lost weight”; in data set [2] (lower dose of vincristine (1 mg/kg i.p. days 8, 15, 22), data not shown) it was “did not lose weight”.

For the compound “Bevacizumab: recombinant humanized anti-VEGF monoclonal antibody [reference compound]”, the “Fractional tumor volume (FTV), each treatment alone” value in data set [4] (Day 24, FGFR1-ECD.339-Fc 15 mg/kg i.p. 3x/wk x 4 wks, bevacizumab 1 mg/kg i.p. 2x/wk x 4 wks, 5-Fu/LV 10 mg/kg each q.d. x 5 days) is 0.58. Moreover, the “Order of antitumor effect of the treatment groups” value in data set [4] (by average tumor volume on a single day and by time for average tumor volume to reach 500 mm^3 (FIG. 11E), value gives the next-ranked group) is listed as “>FGFR1-ECD.339-Fc”. In data set [4] (setting [6]), the “Mean Tumor volume mm^3(±SD)” value is 405 (±56) mm^3 and the “Tumor growth inhibition (%)” value is on record as 41%.
